Assays:
[1] = test system: oedème provoqué sur patte de rat; test: Induced rat paw oedema (formol or ovalbumine; tables do not say which); format: in vivo; settings: for Δ V1 heure: 1 heure; for Δ V1 heure / Δ V3 heures / VARIATIONS DE VOLUME EXPRIME EN % / INDICE DE PROTECTION: 20 mg/kg en équivalent aspirine; for Δ V3 heures: 3 heures
Method: Deux tests de production d'oedème provoqué sur patte de rat, l'un au formol, et l'autre à l'ovalbumine ont été choisis. Dans les deux cas les mesures ont été opérées en incluant une série d'animaux traitée avec de l'aspirine, en comparaison de celle traitée avec l'ASMU.
La dose d'anti-inflammatoire est de 20 mg/kg dans les trois cas, en équivalent aspirine.

[2] = test system: souris; test: Hot plate test (analgesic activity); format: in vivo; settings: moyenne de dix essais
From the text: Le test dit "de la plaque chauffante" a donc été pratiqué pour déterminer de la valeur de l'ASMU en comparaison avec l'aspirine. Le principe de la méthode consiste à poser une souris sur une plaque dont on a élevé la température en fonction du temps. On note la température à laquelle la souris saute, la sensation de chaleur devenant douleur. Cette température est relativement fixe pour chaque animal.
En recommançant la même expérience avec la souris après administration d'une dose d'un analgésique, on notera une température plus élevée qui sera fonction de la dose et de l'action antalgique de la substance.
Dans le tableau V ci-après ont été rassemblés les ré-sultats, correspondants à une moyenne de dix essais obtenus pour l'aspirine (AAS), l'"ASPEGIC" (ASL) et l'ASMU.

[3] = test system: muqueuse gastrique; format: in vivo, rat
From the text: En addition des résultats obtenus lors de l'étude de la toxicité générale de l'ASMU, une expérimentation particulière a été menée sur le rat pour déterminer de façon plus précise l'action irritant sur la muqueuse gastrique que peut développer l'ASMU par rapport à l'aspirine.
Le rat placé dans des conditions de contrainte (cage de petite dimension, n'interdisant pas le mouvement, mais empêchant l'animal de se déplacer et même de se retourner) pendant une durée de douze heures pendant plusieurs jours, développe rapidement une irritation de l'estomac qui évolue jusqu'à l'ulcère.
Sur cet animal sensibilisé, on peut tester, en même temps que la contrainte, l'action de médicaments irritants qui accélèrent le processus de formation de l'ulcère. En fin d'expé-rience, on sacrifie les animaux, et l'examen de la muqueuse gastrique permet de tirer des conclusions sur le pouvoir irritant des substances en comparaison avec les produits de référence.

[4] = test system: oreille de lapin; settings: in vivo
From the text: Une expérience a été menée sur lapins, afin de déterminer le temps de saignement modifié par l'administration d'ASMU et d'aspirine à doses équivalentes.

[5] = même dose d'aspirine, une heure après administration; 60 min; cited from earlier work
[6] = aspirine, literature knowledge; cited from earlier work
[7] = une heure après l'administration, literature knowledge; cited from earlier work
[8] = pH of the aqueous solution; format: physicochemical; settings: solution aqueuse, dix pour cent (p/v)
From the text: La solution aqueuse du complexe ASMU, à concentration de dix pour cent (p/v), présente une valeur de pH très proche de 6, donc proche de la neutralité et tout à fait compatible avec celui du pH sanguin.

[9] = test system: rat; settings: in vivo
From the text: (§1) Des expérimentations ont été réalisées sur l'ASMU. La toxicité aiguë a été étudiée par la détermination classique de la DL₅₀, correspondant à la dose de substance qui, administrée à un groupe d'animaux, provoque la port de la moitié d'entre eux.

[10] = test system: souris; settings: in vivo
From the text: as §1

[11] = test system: rat; settings: in vivo; remark: listed apart in the source
[12] = test system: porc; settings: in vivo
[13] = test system: ostéochondrites déformantes infectieuses; test: Therapeutic use in infectious deforming osteochondritis; format: in vivo; settings: tous les cas traités
From the text: A titre d'exemple d'application thérapeutique inhabituelle, on a pu observer l'action curative de l'ASMU dans le traitement d'ostéochondrites déformantes infectieuses. […] Seule la déformation a persisté lorsqu'elle existait, comme on pouvait s'y attendre.

[14] = état sec
[15] = human, in vivo, po, 5 h
[16] = in vivo
[17] = in vivo; remark: listed apart in the source
From the text: L'étude de la biodisponibilité de l'ASMU a été effec­tuée sur diverses espèces animales et sur l'homme, en réalisant des dosages de la forme acétylée et désacétylée dans le temps.

CC(=O)Oc1ccccc1C(=O)O [AAS, aspirine]
Δ V1 heure ([1]; 20 mg/kg): 0,580±0,03 cm^3 | Δ V3 heures ([1]; 20 mg/kg): 0,930±0,05 cm^3 | VARIATIONS DE VOLUME EXPRIME EN % ([1]; A 1 heure, 20 mg/kg): 72% | VARIATIONS DE VOLUME EXPRIME EN % ([1]; A 3 heures, 20 mg/kg): 115,01% | INDICE DE PROTECTION ([1]; à 1 heure, 20 mg/kg): 7% | INDICE DE PROTECTION ([1]; à 3 heures, 20 mg/kg): 10% | Δt(°C) ([2]; 1 heure après administration): 1,15 °C | Δt(°C) ([2]; 2 heures après administration): 1,40 °C | Δt(°C) ([2]; 3 heures après administration): 0,75 °C | Δt(°C) ([2]; ½ heure après administration): 0,90 °C | animaux traités avec ulcères ([3]; rat sous contrainte): 80 pour cent | ALLONGEMENT DU TEMPS DE SAIGNEMENT [4]: 66% | quantités d'aspirine retrouvées dans le sang [5]: ~3 mg par litre | part de la dose absorbée par l'organisme [6]: deux tiers | part de la dose initiale sous la forme acétylée [7]: ~10 pour 100

CC(=O)Oc1ccccc1C(=O)[O-].CC(=O)Oc1ccccc1C(=O)[O-].NC(N)=O.[Mg+2] [ASMU, acétylsalicylate de magnésium-urée]
pH [8]: ~6 | Δ V1 heure [1]: 0,150±0,04 cm^3 | Δ V3 heures [1]: 0,170±0,03 cm^3 | VARIATIONS DE VOLUME EXPRIME EN % ([1]; A 1 heure): 16,48% | VARIATIONS DE VOLUME EXPRIME EN % ([1]; A 3 heures): 18,61% | activité anti-inflammatoire par rapport à celle de l'aspirine ([1]; en moyenne, tests au formol et à l'ovalbumine): dix fois supérieure | INDICE DE PROTECTION ([1]; à 1 heure): 78,6% | INDICE DE PROTECTION ([1]; à 3 heures): 85,4% | Δt(°C) ([2]; 1 heure après administration): 4,75 °C | Δt(°C) ([2]; 2 heures après administration): 4,90 °C | Δt(°C) ([2]; 3 heures après administration): 4,90 °C | Δt(°C) ([2]; ½ heure après administration): 3,70 °C | toxicité aiguë (DL₅₀) diminuée par rapport à l'équivalent aspirine [9]: ~20 pour cent | toxicité aiguë (DL₅₀) diminuée par rapport à l'équivalent aspirine [10]: ~20 pour cent | toxicité chronique: examens cliniques et anatomopathologiques [11]: n'a pas provoqué d'anomalie particulière | toxicité chronique: lésion rénale ou stomacale [11]: aucun signe de lésion rénale ou stomacale | toxicité chronique: examens cliniques et anatomopathologiques [12]: n'a pas provoqué d'anomalie particulière | toxicité chronique: lésion rénale ou stomacale [12]: aucun signe de lésion rénale ou stomacale | irritation de la muqueuse gastrique ([3]; rat, in vivo): irritation comparable, mais légèrement supérieure à celle des témoins | ALLONGEMENT DU TEMPS DE SAIGNEMENT [4]: 7% | action curative [13]: l'inflammation a regressé, puis disparu | durée de conservation sans altération notable [14]: deux ans et demi | acétylsalicylémie [15]: 40 mg par litre de plasma | absorption [16]: pratiquement complète | acétylsalicylémie, fois plus élevée que celle d'une dose équivalente d'aspirine [17]: entre dix et quinze | salicylémie moyenne, % de la quantité circulante [17]: ~10 pour cent

CC(=O)Oc1ccccc1C(=O)O [A S L]
Δ V1 heure ([1]; 20 mg/kg): 0,490±0,04 cm^3 | Δ V3 heures ([1]; 20 mg/kg): 0,700±0,15 cm^3 | VARIATIONS DE VOLUME EXPRIME EN % ([1]; A 1 heure, 20 mg/kg): 50,16% | VARIATIONS DE VOLUME EXPRIME EN % ([1]; A 3 heures, 20 mg/kg): 72,29% | INDICE DE PROTECTION ([1]; à 1 heure, 20 mg/kg): 35% | INDICE DE PROTECTION ([1]; à 3 heures, 20 mg/kg): 43% | Δt(°C) ([2]; 1 heure après administration): 2,15 °C | Δt(°C) ([2]; 2 heures après administration): 1,90 °C | Δt(°C) ([2]; 3 heures après administration): 0,45 °C | Δt(°C) ([2]; ½ heure après administration): 1,25 °C | ALLONGEMENT DU TEMPS DE SAIGNEMENT [4]: 35%

From patent EP0233459A1, “Medicament containing a magnesium-urea complex of acetylsalicylic acid and process for the preparation of this complex” (ARTIKA INTERNATIONAL (HONG-KONG) LIMITED, priority 1986, dated 1987)
